The text below walks through data of patent US7566553B2, “Microorganism of Escherichia Sp, or Corynebacterium Sp, comprising foreign NADP dependent glyceraldehyde-3-phosphate dehydrogenase gene and method for producing L-lysine using the same” (CJ Corporation, priority 2004, dated 2009).

Experiment in all cases: Resistance against lysine analogue AEC, relative growth rate in M9 minimum medium
Common to all, as to type: cell-based, Escherichia coli

One assay deals with E. coli strain TF1. The following applies: strain TE1 (so in the source), absorbance at 562 nm, relative to growth at zero AEC. The procedure: (§1) An Escherichia coli strain TF1 (Korean laid-open Patent No. 1992-0012444) was grown until the strain entered an exponential growth phase and suspended in a 0.1M phosphate buffer (pH 7.0) or 0.1M citrate buffer solution (pH 5.5). N-methyl-N′-nitro-nitrosoguanidine was added into the suspension to a final concentration of 200-500 μg/mL, reacted at 30° C. for 10-30 minutes, and inoculated into a minimum agar plate containing 1-30 g/L of a lysine analogue (AEC: S-(2-aminoethyl)-L-cysteine) to select an analogue-resistant strain. This strain was named “CJ40225”. The resistance of the strain against the lysine analogue was tested using an M9 minimum medium, and the relative growth rate was measured.
(§2) The used M9 minimum medium contained 4 g of glucose, 12.8 g of Na2HPO4.7H2O, 3 g of KH2PO4, 0.5 g of NaCl, and 1 g of NH4Cl per 1 liter of water.

Assay [1] has as its system Wild type E. coli strain W3110. The conditions noted are these: absorbance at 562 nm, relative to growth at zero AEC. The procedure: as §1, §2
Another assay deals with E. coli strain CJ40225. The following applies: absorbance at 562 nm, relative to growth at zero AEC. The method, then: as §1, §2

In the case of `NCCSC[C@H](N)C(=O)O` [AEC, S-(2-aminoethyl)-L-cysteine], the “Relative Growth Rate (%)” value in the assay on E. coli strain TF1 (added AEC 5 g/L) worked out at 103.5%; with E. coli strain TF1 (added AEC 10 g/L), 128.9%; in the assay on E. coli strain TF1 (added AEC 20 g/L), 112.5%; in the assay on E. coli strain TF1 (added AEC 40 g/L), 17.5%; in assay [1] (added AEC 5 g/L), 66.3%; in assay [1] (added AEC 10 g/L), 39.8%. Besides, the “Relative Growth Rate (%)” value worked out at 7.4% in assay [1] (added AEC 20 g/L); 124.3% in the assay with E. coli strain CJ40225 (added AEC 5 g/L); 88.4% in the assay on E. coli strain CJ40225 (added AEC 10 g/L); 89.2% with E. coli strain CJ40225 (added AEC 20 g/L); 73.9% in the assay on E. coli strain CJ40225 (added AEC 40 g/L).
